This note sets out measurements from US20090137527A1, “Compositions and methods for modulating immune function” (Resolvyx Pharmaceuticals, Inc., priority 2007, published 2009).

The structures appear in SMILES notation. Entries after “also recorded” stand apart in the source; their conditions may differ. Where two headings read alike, the source gives them in different places.

Assay [1] relates to whole blood from CIA rats. As to the kind of experiment: Ex vivo LPS-stimulated cytokines in whole blood from CIA rats. More on the design: species or system rat. The following applies: 0.3 mg/kg i.v. twice daily (day 20 sample: 1 mg/kg orally twice daily) from day 8; 10 ng/mL LPS, 4 hours. How it is done: Female Lewis rats were anesthetized with 3-5% isoflurane and arthritis was induced by intradermal injection of 0.3 mL (100 μL at three different sites) of an emulsion […] 1.5 mg/mL of type II bovine collagen, CII (Elastin Products Inc., Cat# CM276), in incomplete Freund's adjuvant (IFA) at the base of the tail on day 0 and 6. Control rats were injected with an equal amount of IFA only.
were measured under two different treatment regimens. In the first (prophylactic) treatment regimen, Compound X was administered i.v., twice daily, at 0.3 mg/kg from day 0 to day 6 or 10. For ex vivo studies, animals were euthanized on day 6 after the last injection and their inguinal lymph nodes were harvested. […] For ex vivo studies, animals were euthanized on day 16 and inguinal lymph nodes were harvested. Venous blood samples were collected during the course of treatment. For CD3 activation, 96-well flat bottom plates were coated with anti-CD3 mAb (eBioscience, clone G4.18) 1 μg/mL. Plates were stored overnight at 4° C., and were subsequently rinsed with PBS once before use. […] All data were processed and analyzed by t-test using GraphPad Prism software.
To measure the effect of Compound X on blood cells, rat whole blood samples were taken on day 8, 10, 13, 16 and 20 (n=3-6). […] After 4 hours in culture, supernatants were collected and cytokine levels measured by Bioplex.

In assay [2] the test system is CD3-stimulated mouse splenocytes. As to the kind of experiment: Ex vivo anti-CD3 stimulated cytokine production of mouse spleen cells after in vivo dosing. The settings on record: for inhibition at 0.03 mg/kg: Mus musculus, Splenocyte, iv, single i.v. 0.03 mg/kg, 30 min before harvest, vs vehicle. How it is done:
BALB/c female mice (n=5), 6-8 weeks old, were given either i.v. injection of Compound X or vehicle once a day for 5 days or a single i.v. injection of Compound X or vehicle. Thirty minutes after the last injection, spleens were removed under sterile conditions, and a single cell suspension was made by pressing through a nylon strainer (BD Falcon Cat# 352340). Cells were spun at 1500 rpm for 10 minutes, and the liquid was aspirated. RBC was lysed by adding 3 mL of ACK solution (Lonza Cat# 10-458E) for 5 minutes. The tube was filled with RPMI media and spun. Cells were resuspended in RPMI/10% FCS. To plates pre-coated with anti-CD3 (per the procedure described below) were added 4×10^5 cells per well. Supernatants were harvested after 18 hours of culture. Cytokine levels were measured by Bioplex (Biorad), according to manufacturer's instructions.
For CD3 stimulation, anti-mouse CD3 mAb (BD Pharmingen clone 145-2C11) was used at 0.2 μg/mL in PBS to coat flat bottom 96-well plate at 4° C. overnight. Plates were rinsed twice with PBS before use.
To measure this effect, mice were given daily i.v. injections of 0.3 mg/kg of Compound X for five days. Spleen cells were then harvested and stimulated with anti-CD3 antibody in vitro overnight.
Mice were given a single i.v. injection of 0.03 mg/kg Compound X 30 minutes before spleen cells were harvested. T cells were isolated by magnetic beads, and the purity of T cells was >95% as measured by flow cytometry. Spleen cells or purified T cells were stimulated with 0.2 μg/mL anti-CD3 overnight, and cytokine levels were measured by Bioplex.
The ability of in vivo treatment with Compound X to inhibit anti-CD3 stimulated cytokine production was measured by treating mice (n=5) with a single i.v. injection of 0.03 mg/kg of Compound X thirty minutes before spleens were harvested. Spleen cells were stimulated with anti-CD3 mAb overnight, and cytokine levels were measured by Bioplex. The resulting percent inhibition of cytokine production by total spleen cells as compared with vehicle treated animals is shown in Table 2. These studies indicate that Compound X, when dosed to naïve animals, inhibited ex vivo CD3-stimulated cytokine production in splenocytes by approximately 35-60%.

The test system of assay [3] is murine DNFB-induced DTH model. The assay is described as follows: DNFB-induced delayed-type-hypersensitivity (DTH) model, ear swelling. Format: in vivo, mouse. How it is done: Ear-swelling (swelling of the skin on the pinnae) was the endpoint of this model. This study was carried out over 6 to 7 days, with events occurring as described below.
Mice (female BALB/c; n=10/group) were immunized with 0.5% of DNFB dissolved in acetone/olive oil. Sensitization was done with the contact allergen, wherein 20 μL of the solution was placed on the footpads of the animals.
[…] The mice were challenged at day 5. 10 μL of a 0.8% DNFB solution was topically applied externally on the right ear of the animal. As control, the left ear was treated the same way with vehicle alone (acetone/olive oil).
Animals were anesthetized with isoflurane and the ear swelling was measured within 24 to 48 hours after challenge using a micrometer. The micrometer calipers were closed around the top portion of the each external ear until resistance from the ear was felt. […]

Turning to `CC[C@@H](O)/C=C/C=C\C[C@@H](O)/C=C/C=C/C=C\[C@@H](O)CCCC(=O)O` [Compound X], the “ex vivo LPS-stimulated cytokine production in whole blood” value in assay [1] is given as “inhibited; also recorded: significantly lower”. Also, the inhibition (as a rule, the change of the read-out against control, counted positive when it falls) at 0.03 mg/kg was found to be 55.2% in assay [2] (anti-CD3 overnight, read-out: % Inhibition of IL-6 production by total spleen cells); 68.3% in assay [2] (anti-CD3 overnight, read-out: % Inhibition of IL-13 production by total spleen cells); 78.5% in assay [2] (anti-CD3 overnight, read-out: % Inhibition of INFγ production by total spleen cells); 62.6% in assay [2] (anti-CD3 overnight, read-out: % Inhibition of Il-2 production by total spleen cells); 64.9% in assay [2] (anti-CD3 overnight, read-out: % Inhibition of Il-4 production by total spleen cells); 42.7% in assay [2] (anti-CD3 overnight, read-out: % Inhibition of MIP1α production by total spleen cells). Also, the inhibition at 0.03 mg/kg in assay [2] (anti-CD3 overnight, read-out: % Inhibition of MIP1β production by total spleen cells) turned out to be 46.1%; in assay [2] (anti-CD3 overnight, read-out: % Inhibition of RANTES production by total spleen cells), 37.2%; in assay [2] (anti-CD3 overnight, read-out: % Inhibition of TNFα production by total spleen cells), 50.7%. Further, in assay [2] (daily i.v. 0.3 mg/kg for five days, anti-CD3 overnight), the “cytokine release of CD3-stimulated mouse splenocytes” value is listed as “inhibits”. For the same compound, the “inhibition of ex vivo CD3-stimulated cytokine production in splenocytes” value in assay [2] (dosed to naïve animals, summary of studies) is given as 35-60%. In addition, the “CD3-induced cytokine release, spleen cells or purified T cells” value in assay [2] (single i.v. 0.03 mg/kg 30 minutes before harvest, 0.2 μg/mL anti-CD3 overnight) is “reduction”. Besides, the “maximal efficacy, inhibition of tissue (ear) swelling” value in assay [3] (30 μg/kg i.v., 15 minutes before challenge, ear thickness 24 hours after challenge) was determined as 38%. Besides, the “inhibition of the DTH response, Compound X versus dexamethasone” value in assay [3] (dexamethasone 60 minutes prior to DNFB challenge) was “comparable levels of inhibition”. In addition, in assay [3] (i.p. 0.03 mg/kg once daily day 0 to day 5, or single injection on day 5), the “DNFB-DTH response, two regimens” value is “comparable and significant reduction”. Further, in assay [3] (i.v., 15 minutes before challenge), the “tissue swelling, dose dependence” value was “dose-dependently reduced”.
